Data as given in patent US20250206718A1, “NITROGEN-CONTAINING HETEROCYCLIC DERIVATIVE INHIBITOR, PREPARATION METHOD THEREFOR AND USE THEREOF” (SHANGHAI HANSOH BIOMEDICAL CO., LTD., priority 2022, published 2025).

Key:
[1] = molecular target: Ba/F3 EGFR Del19/C797S cells (Homo sapiens, UniProt P00533, C797S, cells depend on it, form not given); test: Cell proliferation inhibition (Cell Titer-Glo), Ba/F3 EGFR Del19/C797S; assay type: cell-based, mouse; settings: 72 hours, CellTiter-Glo, read-out: Ba/F3 EGFR Del19/C797S IC50
Ba/F3 EGFR Del19/C797S cells, sequence (P00533 with tags, fused parts or gaps DEL746-750/C797S, form open): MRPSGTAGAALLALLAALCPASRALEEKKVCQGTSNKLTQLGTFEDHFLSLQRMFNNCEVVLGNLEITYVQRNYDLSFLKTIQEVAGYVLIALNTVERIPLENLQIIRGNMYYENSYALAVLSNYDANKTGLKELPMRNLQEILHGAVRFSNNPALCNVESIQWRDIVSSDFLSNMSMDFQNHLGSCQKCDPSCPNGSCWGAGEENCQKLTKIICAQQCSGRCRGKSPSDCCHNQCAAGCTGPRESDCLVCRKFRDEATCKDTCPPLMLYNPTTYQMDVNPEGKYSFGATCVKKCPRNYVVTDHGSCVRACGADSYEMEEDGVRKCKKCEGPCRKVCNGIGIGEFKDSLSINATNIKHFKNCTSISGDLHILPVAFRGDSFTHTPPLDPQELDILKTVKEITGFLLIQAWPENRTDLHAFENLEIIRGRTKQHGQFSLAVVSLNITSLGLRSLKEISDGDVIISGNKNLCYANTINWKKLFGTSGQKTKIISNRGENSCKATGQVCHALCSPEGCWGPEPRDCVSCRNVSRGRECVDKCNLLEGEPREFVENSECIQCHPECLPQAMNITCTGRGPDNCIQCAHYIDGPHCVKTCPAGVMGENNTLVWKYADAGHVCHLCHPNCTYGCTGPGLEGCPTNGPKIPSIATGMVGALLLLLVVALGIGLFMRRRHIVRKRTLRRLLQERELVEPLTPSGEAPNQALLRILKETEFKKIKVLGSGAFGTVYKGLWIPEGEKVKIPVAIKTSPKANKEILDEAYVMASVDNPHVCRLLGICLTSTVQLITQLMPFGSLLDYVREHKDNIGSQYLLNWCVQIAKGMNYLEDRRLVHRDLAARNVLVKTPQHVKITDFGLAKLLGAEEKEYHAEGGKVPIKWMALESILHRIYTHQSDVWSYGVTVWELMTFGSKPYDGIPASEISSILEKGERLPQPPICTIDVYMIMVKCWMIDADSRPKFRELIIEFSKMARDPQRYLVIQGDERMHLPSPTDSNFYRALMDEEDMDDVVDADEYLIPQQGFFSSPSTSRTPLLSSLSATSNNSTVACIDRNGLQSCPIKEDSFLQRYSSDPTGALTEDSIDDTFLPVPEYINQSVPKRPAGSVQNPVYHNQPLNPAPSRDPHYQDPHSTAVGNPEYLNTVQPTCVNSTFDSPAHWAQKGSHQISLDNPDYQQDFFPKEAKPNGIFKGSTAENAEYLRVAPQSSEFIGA
Excerpt: (§1) Experimental objective: The objective of this test example is to test the inhibitory activity of compounds on the proliferation of different EGFR C797S drug-resistant mutant cell lines Ba/F3 EGFR Del19/T790M/C797S, Ba/F3 EGFR L858R/T790M/C797S, and Ba/F3 EGFR Del19/C797S.
(§2) • Ba/F3 EGFR Del19/T790M/C797S cells were purchased from KYinno Biotechnology Co., Ltd.; • Ba/F3 EGFR Del19/C797S cells were purchased from CoBioer Biosciences Co., Ltd.; • Ba/F3 EGFR L858R/T790M/C797S cells were purchased from CoBioer Biosciences Co., Ltd.; • Cell Titer-Glo was purchased from Promega, with a catalog number of G7573; • RPMI 1640 was purchased from Gibco, with a catalog number of 22400089; • FBS was purchased from Gibco, with a catalog number of 10091148; • cell culture plates were purchased from Corning, with a catalog number of 3610.
(§3) The inhibitory activity of the compound on the proliferation of different EGFR C797S drug-resistant mutant cell lines was detected using the Cell Titer-Glo method. The different cell lines were cultured in RPMI 1640 complete culture medium containing 10% FBS under conditions of 37° C. and 5% CO2, the cells were collected by centrifugation when growing to a certain density, and adjusted to appropriate cell density after counting, the cells were spread on a white 96-well plate at 90 μL/well, and cultured in a 37° C., 5% CO2 incubator overnight, prepared compound solutions of different concentrations were added at 10 μL/well, corresponding solvent controls were set, and all wells were cultured in a 37° C., 5% CO2 incubator for 72 hours, 50 μL of CellTiter-Glo solution was added to each well, shook and mixed evenly, and incubated in the dark for 10 minutes, and a BioTek Synergy H1 microplate reader was used for reading.
(§4) The luminescence signal value was used to calculate the inhibition rate. Graphpad Prism software was used to fit the concentration and inhibition rate to a nonlinear regression curve, so as to obtain the IC50 value, as shown in the Table below for details.

[2] = molecular target: Ba/F3 EGFR Del19/T790M/C797S cells (Homo sapiens, UniProt P00533, T790M/C797S, cells depend on it, form not given); test: Cell proliferation inhibition (Cell Titer-Glo), Ba/F3 EGFR Del19/T790M/C797S; assay type: cell-based, mouse; settings: 72 hours, CellTiter-Glo, read-out: Ba/F3 EGFR Del19_T790M_C797S IC50
Ba/F3 EGFR Del19/T790M/C797S cells, sequence (P00533 with tags, fused parts or gaps DEL746-750/T790M/C797S, form open): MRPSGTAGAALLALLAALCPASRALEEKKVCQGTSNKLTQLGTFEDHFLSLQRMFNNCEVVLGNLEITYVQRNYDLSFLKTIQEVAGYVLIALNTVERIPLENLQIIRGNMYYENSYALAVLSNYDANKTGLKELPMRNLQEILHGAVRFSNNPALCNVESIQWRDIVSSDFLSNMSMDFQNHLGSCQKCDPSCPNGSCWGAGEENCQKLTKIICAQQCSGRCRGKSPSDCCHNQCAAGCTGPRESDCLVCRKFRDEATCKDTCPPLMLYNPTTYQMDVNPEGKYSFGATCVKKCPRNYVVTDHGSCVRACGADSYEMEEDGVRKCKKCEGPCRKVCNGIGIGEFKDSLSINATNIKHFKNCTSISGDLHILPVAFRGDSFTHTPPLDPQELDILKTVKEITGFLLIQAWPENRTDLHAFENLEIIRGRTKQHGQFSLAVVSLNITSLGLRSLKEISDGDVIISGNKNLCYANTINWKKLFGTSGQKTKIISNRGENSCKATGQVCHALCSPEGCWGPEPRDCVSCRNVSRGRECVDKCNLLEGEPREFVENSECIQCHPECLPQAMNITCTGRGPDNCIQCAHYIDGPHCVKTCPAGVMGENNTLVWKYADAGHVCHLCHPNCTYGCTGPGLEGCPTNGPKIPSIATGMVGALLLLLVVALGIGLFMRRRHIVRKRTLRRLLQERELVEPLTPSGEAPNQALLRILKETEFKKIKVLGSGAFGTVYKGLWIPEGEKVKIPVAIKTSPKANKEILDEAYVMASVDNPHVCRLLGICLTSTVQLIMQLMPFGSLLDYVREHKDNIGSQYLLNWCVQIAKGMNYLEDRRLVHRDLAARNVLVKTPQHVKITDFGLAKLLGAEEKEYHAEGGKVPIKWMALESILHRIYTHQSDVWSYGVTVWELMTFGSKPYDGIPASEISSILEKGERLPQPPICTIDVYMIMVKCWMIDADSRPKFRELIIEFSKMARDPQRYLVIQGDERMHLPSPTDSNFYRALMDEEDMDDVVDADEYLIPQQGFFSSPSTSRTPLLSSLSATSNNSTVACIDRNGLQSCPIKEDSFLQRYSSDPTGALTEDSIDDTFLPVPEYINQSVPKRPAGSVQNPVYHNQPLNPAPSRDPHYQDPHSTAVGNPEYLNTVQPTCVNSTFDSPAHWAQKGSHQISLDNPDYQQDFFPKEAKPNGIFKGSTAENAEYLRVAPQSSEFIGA
Excerpt: as §1, §2, §3, §4

[3] = Rat pharmacokinetic evaluation test; assay type: in vivo; settings: Sprague-Dawley (SD), po, SD rats, male, p.o. 5 mg/kg, plasma
Experimental: SD rats were used as test animals to study the pharmacokinetic behavior of the compounds of the present invention in the rat body (plasma) after oral administration at a dose of 5 mg/kg.
2.2 Experimental Animals: 3 SD Rats/Group, Male, from Shanghai Jiesijie Experimental Animal Co., Ltd., Animal Production License Number (SCXK (Shanghai) 2013-0006 No. 311620400001794).
• Oral administration drug preparation: 20% solutol HS15 in 0.5% MC (methylcellulose)
20 g of a Solutol HS15 solid and 0.5 g of a MC solid powder were weighed and dissolved in 80 mL of purified water, and the mixture was vortexed, mixed until uniform, and subjected to ultrasound treatment to obtain a clear solution of 20% solutol HS15 in 0.5% MC.
The example compound was weighed into a 20 mL glass bottle, the solution was added thereto and the mixture was subjected to ultrasound treatment for 10 minutes to obtain a clear solution with a concentration of 0.5 mg/mL.
3 male SD rats were administered p.o. respectively after the 3 male SD rats were fasted overnight; the p.o. dose was 5 mg/kg and the administration volume was 10 mL/kg.
Blood collection: Before and after administration to rats, 0.2 mL of blood was collected from the jugular vein at 0.25, 0.5, 1, 2, 4, 6, 8 and 24 h, and placed in an EDTA-K2 anticoagulation tube, which was centrifuged at 6000 rpm at 4° C. for 6 min to separate plasma which was stored at −80° C.; the rats were fed 4 h after administration.
1) 160 μL of acetonitrile was added to 40 μL of plasma sample for precipitation, mixed and centrifuged at 3500×g for 5 to 20 min.
2) the treated supernatant solution was taken and subjected to LC/MS/MS to analyze the concentrations of the test compounds. LC/MS/MS analysis instrument: AB Sciex API 4000 Qtrap.
• Liquid phase conditions: Shimadzu LC-20AD pump • Chromatographic column: Agilent ZORBAX XDB-C18 (50×2.1 mm, 3.5 μm) mobile phase: liquid A is 0.1% aqueous formic acid solution, liquid B is acetonitrile • Flow rate: 0.4 mL/min • Elution time: 0-4.0 min, the eluent is as follows:
The main pharmacokinetic parameters were calculated using WinNonlin 6.1.

| GI50 [1] | Structure (SMILES) | other results |
| --- | --- | --- |
| 13 nM | [2H]C([2H])([2H])n1cc(-c2nccc(Nc3cc4c(C(C)C)ccc(N5C[C@H](CS(C)(=O)=O)[C@H]5C)c4cn3)n2)c(C)n1 [Example 2, 5-isopropyl-N-(2-(3-methyl-1-(methyl-d3)-1H-pyrazol-4-yl)pyrimidin-4-yl)-8-((2R,3S)-2-methyl-3-((methylsulfonyl)methyl)azetidin-1-yl)isoquinolin-3-amine] | GI50 [2]: 6.2 nM |
| 16 nM | [2H]C([2H])([2H])c1nn(C)cc1-c1nccc(Nc2cc3c(C(C)C)ccc(N4C[C@H](CS(C)(=O)=O)[C@H]4C)c3cn2)n1 [Example 3, 5-isopropyl-8-((2R,3S)-2-methyl-3-((methanesulfonyl)methyl)azetidin-1-yl)-N-(2-(1-methyl-3-(methyl-d3)-1H-pyrazol-4-yl)pyrimidin-4-yl)isoquinolin-3-amine] | AUC(0-t) [3]: 2380 ng·h/mL; Cmax [3]: 458 ng/mL; half-life [3]: 4.1 h |
| 20 nM | [2H]C([2H])([2H])c1nn(C([2H])([2H])[2H])cc1-c1nccc(Nc2cc3c(C(C)C)ccc(N4C[C@H](CS(C)(=O)=O)[C@H]4C)c3cn2)n1 [Example 4, N-(2-(1,3-bis(methyl-d3)-1H-pyrazol-4-yl)pyrimidin-4-yl)-5-isopropyl-8-((2R,3S)-2-methyl-3-((methylsulfonyl)methyl)azabut-1-yl)isoquinolin-3-amine] | GI50 [2]: 7.7 nM |
| 70 nM | CC(C)c1ccc(N2C[C@H](CS(C)(=O)=O)[C@H]2C)c2cnc(Nc3ccnc(-c4cn(C5CC6CN(C)CC6C5)nc4Cl)n3)cc12 (stereo partly drawn) [Example 150, N-(2-(3-chloro-1-(2-methyloctahydrocyclopentadieno[c]pyrrol-5-yl)-1H-pyrazol-4-yl)pyrimidin-4-yl)-5-isopropyl-8-((2R,3S)-2-methyl-3-((methanesulfonyl)methyl)azetidin-1-yl)isoquinolin-3-amine] | – |
| 41 nM | CC(C)c1ccc(N2C[C@H](CS(C)(=O)=O)[C@H]2C)c2cnc(Nc3ccnc(-c4cn(C5CC(C#N)C5)nc4Cl)n3)cc12 (stereo partly drawn) [Example 151A, 3-(3-chloro-4-(4-((5-isopropyl-8-((2R,3S)-2-methyl-3-((methanesulfonyl)methyl)azetidin-1-yl)isoquinolin-3-yl)amino)pyrimidin-2-yl)-1H-pyrazol-1-yl)cyclobutane-1-carbonitrile] | – |
| 22 nM | CC(C)c1ccc(N2C[C@H](CS(C)(=O)=O)[C@H]2C)c2cnc(Nc3ccnc(-c4cn(C5CC(O)C5)nc4Cl)n3)cc12 (stereo partly drawn) [Example 154A, 3-(3-chloro-4-(4-((5-isopropyl-8-((2R,3S)-2-methyl-3-((methanesulfonyl)methyl)azetidin-1-yl)isoquinolin-3-yl)amino)pyrimidin-2-yl)-1H-pyrazol-1-yl)cyclobutan-1-ol] | – |
| 42 nM | CC(C)c1ccc(N2C[C@H](CS(C)(=O)=O)[C@H]2C)c2cnc(Nc3ccnc(-c4cn(C5CC(=O)C5)nc4Cl)n3)cc12 [Example 156, 3-(3-chloro-4-(4-((5-isopropyl-8-((2R,3S)-2-methyl-3-((methanesulfonyl)methyl)azetidin-1-yl)isoquinolin-3-yl)amino)pyrimidin-2-yl)-1H-pyrazol-1-yl)cyclobutan-1-one] | – |
| 50 nM | CC(C)c1ccc(N2C[C@H](CS(C)(=O)=O)[C@H]2C)c2cnc(Nc3ccnc(-c4cn(C5CCN(C)CC5)nc4Cl)n3)cc12 [Example 158, N-(2-(3-chloro-1-(1-methylpiperidin-4-yl)-1H-pyrazol-4-yl)pyrimidin-4-yl)-5-isopropyl-8-((2R,3S)-2-methyl-3-((methanesulfonyl)methyl)azetidin-1-yl)isoquinolin-3-amine] | – |
| 22 nM | CC(C)c1ccc(N2C[C@H](CS(C)(=O)=O)[C@H]2C)c2cnc(Nc3ccnc(-c4cn(CC5CCO5)nc4Cl)n3)cc12 (stereo partly drawn) [Example 165, N-(2-(3-chloro-1-(oxetan-2-ylmethyl)-1H-pyrazol-4-yl)pyrimidin-4-yl)-5-isopropyl-8-((2R,3S)-2-methyl-3-((methanesulfonyl)methyl)azetidin-1-yl)isoquinolin-3-amine] | – |
| 74 nM | Cc1nn(C)cc1-c1nccc(Nc2cc3c(C(C)C)ccc(N4CC(CS(C)(=O)=NC#N)C4)c3cn2)n1 (stereo not drawn) [Example 167, N-(((1-(3-((2-(1,3-dimethyl-1H-pyrazol-4-yl)pyrimidin-4-yl)amino)-5-isopropylisoquinolin-8-yl)azetidin-3-yl)methyl)(methyl)(carbonyl)-16-sulfanylidene)cyanamide] | – |
| 52 nM | CC(C)c1c(N)cc(N2C[C@H](CS(C)(=O)=O)[C@H]2C)c2cnc(Nc3ccnc(-c4cn(C)nc4Cl)n3)cc12 [Example 169, N3-(2-(3-chloro-1-methyl-1H-pyrazol-4-yl)pyrimidin-4-yl)-5-isopropyl-8-((2R,3S)-2-methyl-3-((methanesulfonyl)methyl)azetidin-1-yl)isoquinoline-3,6-diamine] | – |
| 60 nM | CC(C)c1ccc(N2C[C@H](CS(C)(=O)=O)[C@H]2C)c2cnc(Nc3ccnc(-c4c[nH]nc4Cl)n3)cc12 [Example 170, N-(2-(3-chloro-1H-pyrazol-4-yl)pyrimidin-4-yl)-5-isopropyl-8-((2R,3S)-2-methyl-3-((methanesulfonyl)methyl)azetidin-1-yl)isoquinolin-3-amine] | – |
| 43 nM | CC(C)c1ccc(N2C[C@H](CS(C)(=O)=O)[C@H]2C)c2cnc(Nc3ccnc(-c4cn(C(F)F)nc4Cl)n3)cc12 [Example 177, N-(2-(3-chloro-1-(difluoromethyl)-1H-pyrazol-4-yl)pyrimidin-4-yl)-5-isopropyl-8-((2R,3S)-2-methyl-3-((methanesulfonyl)methyl)azetidin-1-yl)isoquinolin-3-amine] | – |
| 19 nM | CC(C)c1c(F)cc(N2CC(NS(C)(=O)=O)C2)c2cnc(Nc3ccnc(-c4cn(C)nc4Cl)n3)cc12 [Example 178, N-(1-(3-((2-(3-chloro-1-methyl-1H-pyrazol-4-yl)pyrimidin-4-yl)amino)-6-fluoro-5-isopropylisoquinolin-8-yl)azetidin-3-yl)methanesulfonamide] | – |
| 80 nM | CC(C)c1ccc(N2C[C@H](CS(C)(=O)=O)[C@H]2C)c2cnc(Nc3ccnc(-c4cn(C(C)CC#N)nc4Cl)n3)cc12 (stereo partly drawn) [Example 185, 3-(3-chloro-4-(4-((5-isopropyl-8-((2R,3S)-2-methyl-3-((methanesulfonyl)methyl)azetidin-1-yl)isoquinolin-3-yl)amino)pyrimidin-2-yl)-1H-pyrazol-1-yl)butyronitrile] | – |
| 65 nM | CC1CC(Cn2cc(-c3nccc(Nc4cc5c(C(C)C)ccc(N6C[C@H](CS(C)(=O)=O)[C@H]6C)c5cn4)n3)c(Cl)n2)O1 (stereo partly drawn) [Example 188, N-(2-(3-chloro-1-((4-methyloxetan-2-yl)methyl)-1H-pyrazol-4-yl)pyrimidin-4-yl)-5-isopropyl-8-((2R,3S)-2-methyl-3-((methanesulfonyl)methyl)azetidin-1-yl)isoquinolin-3-amine] | – |
